From PMC4364940, “Human β-Defensin 4 with Non-Native Disulfide Bridges Exhibit Antimicrobial Activity” (PLoS ONE, 2015)
Like-named read-outs stand apart in the source and are kept apart here. Positions of bridges follow the written chain, without caps; N, C: chain ends. Residues, ends and D or L forms follow the SMILES beside them. *: point of attachment. Acm = CC(=O)NC*; tBu = CC(C)(C)*

What was measured:
[1] = system: Escherichia coli (MG1655); settings: pH 7.4
[2] = system: Staphylococcus aureus (NCTC 8530); settings: pH 7.4
E. coli [3] = type: cell-based, Escherichia coli
[4] = system: Candida albicans (ATCC 18804); settings: ATCC 18804, 2 h
E. coli [5] = type: cell-based, Escherichia coli; remark: listed apart in the source
P. aeruginosa [6] = experiment: Salt sensitivity assay (150 mM NaCl); type: cell-based, Pseudomonas aeruginosa; settings: peptides at lethal concentrations
P. aeruginosa [7] = type: cell-based, Pseudomonas aeruginosa; settings: peptide treated cells plated at fixed time intervals during 2 hrs of incubation
Description: The antibacterial activity of peptides was examined against Gram-negative bacteria Escherichia coli (MG1655), Pseudomonas aeruginosa (NCTC 6750) and Gram-positive bacteria Staphylococcus aureus (NCTC 8530) using colony counting assay. Bacteria were sub-cultured on nutrient broth (Difco, Detroit, MI, US) at 37°C to mid-logarithmic phase from an overnight grown culture. The cells were harvested and washed with 10 mM sodium phosphate buffer (pH 7.4). 100 μl of suspension containing 10^6 cfu/ml was incubated with varying concentration of peptides for 2 hrs at 37°C. The cells were spread on nutrient agar plates and incubated for 14–18 hrs at 37°C. The numbers of colony forming units (cfu) was counted and minimum concentration at which more than 99% of killing observed was taken as lethal concentration (LC). Fungicidal activity against Candida albicans (ATCC 18804) was also determined as described for the bacteria. […] The effect of loss of proton motif force (pmf) in bacteria and C. albicans on the antimicrobial activity of the peptides was determined by adding the metabolic inhibitor like carbonyl cyanide m-chlorophenylhydrazone (CCCP) (50 μM) into the cell suspension 20 mins prior to the peptides treatment. The rate of killing with respect to time was determined by plating the peptide treated cells at fixed time intervals during 2 hrs of incubation. […]

S. aureus = type: cell-based, Staphylococcus aureus
[8] = system: Pseudomonas aeruginosa (NCTC 6750); settings: NCTC 6750, 2 h, pH 7.4

CC[C@H](C)[C@@H]1NC(=O)[C@H](CCCNC(=N)N)NC(=O)[C@H](Cc2ccc(O)cc2)NC(=O)[C@H](CCC(=O)O)NC(=O)[C@H](CCC(N)=O)NC(=O)[C@H](CO)NC(=O)[C@H](CCCNC(=N)N)NC(=O)[C@H](CCCCN)NC(=O)[C@H](CCCCN)NC(=O)[C@H](CCCNC(=N)N)NC(=O)[C@@H](NC(=O)[C@H](CCCNC(=N)N)NC(=O)[C@H](C)NC(=O)[C@@H](NC(=O)CNC(=O)[C@H](Cc2ccc(O)cc2)NC(=O)CNC(=O)[C@H](CO)NC(=O)[C@H](CO)NC(=O)[C@@H](NC(=O)[C@H](CCCNC(=N)N)NC(=O)[C@H](CC(=O)O)NC(=O)[C@H](CC(C)C)NC(=O)[C@H](CCC(=O)O)NC(=O)[C@H](Cc2ccccc2)NC(=O)[C@@H](N)CCC(=O)O)[C@@H](C)CC)[C@@H](C)O)CSSC[C@@H](C(=O)N[C@@H](CC(C)C)C(=O)N[C@@H](CCCNC(=N)N)C(=O)N[C@@H](CCCCN)C(=O)O)NC(=O)[C@H](CO)NC(=O)[C@H](C)NC(=O)[C@H](Cc2ccc(O)cc2)NC(=O)[C@H]([C@@H](C)O)NC(=O)[C@H](CC(N)=O)NC(=O)[C@@H]2CCCN2C(=O)[C@H](CO)NC(=O)[C@H](CCCNC(=N)N)NC(=O)CNC1=O [H4-1d[S]] (H-EFELDRISSGYGTARCRKKRSQEYRIGRSPNTYASCLRK-OH; disulfide 16-36)
lethal concentration (LC) against E. coli [1]: 3 µM
lethal concentration (LC) against S. aureus [2]: 5 µM

CC[C@H](C)[C@@H]1NC(=O)[C@H](CCCNC(=N)N)NC(=O)[C@H](Cc2ccc(O)cc2)NC(=O)[C@H](CCC(=O)O)NC(=O)[C@H](CCC(N)=O)NC(=O)[C@H](CO)NC(=O)[C@H](CCCNC(=N)N)NC(=O)[C@H](CCCCN)NC(=O)[C@H](CCCCN)NC(=O)[C@H](CCCNC(=N)N)NC(=O)[C@@H](NC(=O)[C@H](CCCNC(=N)N)NC(=O)[C@H](C)NC(=O)[C@@H](NC(=O)CNC(=O)[C@H](Cc2ccc(O)cc2)NC(=O)CNC(=O)[C@H](CO)NC(=O)[C@H](CO)NC(=O)[C@@H](NC(=O)[C@H](CCCNC(=N)N)NC(=O)[C@H](CC(=O)O)NC(=O)[C@H](CC(C)C)NC(=O)[C@@H](N)CCC(=O)O)[C@@H](C)CC)[C@@H](C)O)CSSC[C@@H](C(=O)N[C@@H](CC(C)C)C(=O)N[C@@H](CCCNC(=N)N)C(=O)N[C@@H](CCCCN)C(=O)O)NC(=O)[C@H](CO)NC(=O)[C@H](C)NC(=O)[C@H](Cc2ccc(O)cc2)NC(=O)[C@H]([C@@H](C)O)NC(=O)[C@H](CC(N)=O)NC(=O)[C@@H]2CCCN2C(=O)[C@H](CO)NC(=O)[C@H](CCCNC(=N)N)NC(=O)CNC1=O [H4-1d[S]ΔEF] (H-ELDRISSGYGTARCRKKRSQEYRIGRSPNTYASCLRK-OH; disulfide 14-34; N-terminus and C-terminus assumed)
lethal concentration (LC) against E. coli [1]: 3 µM
lethal concentration (LC) against S. aureus [2]: 5 µM

CC[C@H](C)[C@@H]1NC(=O)[C@H](CCCNC(=N)N)NC(=O)[C@H](Cc2ccc(O)cc2)NC(=O)[C@H](CCC(=O)O)NC(=O)[C@H](CCC(N)=O)NC(=O)[C@H](CO)NC(=O)[C@H](CCCNC(=N)N)NC(=O)[C@@H]2CSSC[C@@H](C(=O)N[C@@H](CC(C)C)C(=O)N[C@@H](CCCNC(=N)N)C(=O)N[C@@H](CCCCN)C(=O)O)NC(=O)[C@@H]3CSSC[C@H](NC(=O)[C@@H](NC(=O)[C@H](CCCNC(=N)N)NC(=O)[C@H](CC(=O)O)NC(=O)[C@H](CC(C)C)NC(=O)[C@@H](N)CCC(=O)O)[C@@H](C)CC)C(=O)NCC(=O)N[C@@H](Cc4ccc(O)cc4)C(=O)NCC(=O)N[C@@H]([C@@H](C)O)C(=O)N[C@@H](C)C(=O)N[C@@H](CCCNC(=N)N)C(=O)N[C@@H](CSSC[C@H](NC(=O)[C@H](CCCNC(=N)N)NC(=O)CNC1=O)C(=O)N1CCC[C@H]1C(=O)N[C@@H](CC(N)=O)C(=O)N[C@@H]([C@@H](C)O)C(=O)N[C@@H](Cc1ccc(O)cc1)C(=O)N[C@@H](C)C(=O)N3)C(=O)N[C@@H](CCCNC(=N)N)C(=O)N[C@@H](CCCCN)C(=O)N[C@@H](CCCCN)C(=O)N2 [HBD4, Human β-defensin 4] (H-ELDRICGYGTARCRKKCRSQEYRIGRCPNTYACCLRK-OH; disulfide 6-33, 13-27, 17-34; N-terminus and C-terminus assumed)
lethal concentration (LC) against E. coli ([1]; MG1655, 2 h): 5 (0.53) μM
activity against E. coli in the presence of 150 mM NaCl (E. coli [3]): significant loss in activity
salt sensitivity against E. coli in the absence of pmf (E. coli [3]): attenuation of activity by NaCl is not observed
minimum fungicidal concentration (MFC) against C. albicans [4]: 7.5 (0.91) μM
time of incubation for killing of E. coli (E. coli [5]): ≤ 30 min
lethal concentration (LC) against S. aureus ([2]; NCTC 8530, 2 h): 15 (0.47) μM
activity against P. aeruginosa in the presence of 150 mM NaCl (P. aeruginosa [6]): significant loss in activity
rate of killing of P. aeruginosa (P. aeruginosa [7]): more rapidly as compared to the analogs
activity against S. aureus in the presence of 150 mM NaCl (S. aureus): significant loss in activity
lethal concentration (LC) against P. aeruginosa [8]: 12 (1.35) μM

CC[C@H](C)[C@@H]1NC(=O)[C@H](CCCNC(=N)N)NC(=O)[C@H](Cc2ccc(O)cc2)NC(=O)[C@H](CCC(=O)O)NC(=O)[C@H](CCC(N)=O)NC(=O)[C@H](CO)NC(=O)[C@H](CCCNC(=N)N)NC(=O)[C@H](CCCCN)NC(=O)[C@H](CCCCN)NC(=O)[C@H](CCCNC(=N)N)NC(=O)[C@@H](NC(=O)[C@H](CCCNC(=N)N)NC(=O)[C@H](C)NC(=O)[C@@H](NC(=O)CNC(=O)[C@H](Cc2ccc(O)cc2)NC(=O)CNC(=O)[C@H](CSC(C)(C)C)NC(=O)[C@H](CSCNC(C)=O)NC(=O)[C@@H](NC(=O)[C@H](CCCNC(=N)N)NC(=O)[C@H](CC(=O)O)NC(=O)[C@H](CC(C)C)NC(=O)[C@@H](N)CCC(=O)O)[C@@H](C)CC)[C@@H](C)O)CSSC[C@@H](C(=O)N[C@@H](CC(C)C)C(=O)N[C@@H](CCCNC(=N)N)C(=O)N[C@@H](CCCCN)C(=O)O)NC(=O)[C@H](CSCNC(C)=O)NC(=O)[C@H](C)NC(=O)[C@H](Cc2ccc(O)cc2)NC(=O)[C@H]([C@@H](C)O)NC(=O)[C@H](CC(N)=O)NC(=O)[C@@H]2CCCN2C(=O)[C@H](CSC(C)(C)C)NC(=O)[C@H](CCCNC(=N)N)NC(=O)CNC1=O [Peptide H4-1dΔEF] (H-ELDRIC(Acm)C(tBu)GYGTARCRKKRSQEYRIGRC(tBu)PNTYAC(Acm)CLRK-OH; disulfide 14-34; N-terminus and C-terminus assumed)
lethal concentration (LC) against E. coli [1]: 2.5 µM
lethal concentration (LC) against S. aureus [2]: 3.5 µM
